Values of other authors, collected in patent US5047247A, “Dispersible tablets of dihydroergotoxine methanesulfonate and of acid addition salts thereof” (LEK, priority 1988, dated 1991).

Row | Substance | solubility in water, in words
1 | dihydroergotoxine methanesulphonate | poorly soluble in water
2 | dihydroergotoxine | poorly soluble in water
